Experimental data from patent US20250188080A1, “IMIDAZOLONYLQUINOLINE COMPOUNDS AND THERAPEUTIC USES THEREOF” (Merck Patent GmbH, priority 2019, published 2025).

Columns and labels:
[1] = Non-sink dissolution in FaSSIF (pH 6.5); type: physicochemical; conditions: FaSSIF buffer solution (pH 6.5), FIG. 9
Protocol: Non-sink dissolution profiles for solid-state forms were acquired using shaked-flask method with excess solid material in FaSSIF medium (pH 6.5) with time-resolved sampling for determination of dissolved quantities of API.
Approx. 10-20 mg of solid sample were weighed into glass vials. 7 ml of respective medium (prewarmed to 37° C.) were added and the suspension was shaken at 450 rpm at 37° C. After 5 min, 10 min, 15 min, 30 min, 60 min, 120 min, 24 h and 48 h, […] was withdrawn and filtered through a 0.2 μm syringe filter. Clear filtrate was analysed by HPLC after suitable dilution to measure the amount of compound/form (may also be referred to as API) dissolved.
FaSSIF: 3 mM sodium taurocholate; 0.75 mM lecithin; 105.9 mM sodium chloride; 28.4 mM monobasic sodium phosphate and 8.7 mM sodium hydroxide, pH 6.5
Levels of dissolved compound/form were analysed by HPLC, with the following conditions: • Column: Chromolith RP-18e 100-3 mm • Solvent A: water/formic acid (999:1; v/v) • Solvent B: acetonitrile/formic acid (999:1; v/v) • Injection volume: 5 μL • Column temperature: 37° C. • HPLC-Gradient: […]

[2] = Dynamic vapor sorption (DVS) water uptake; type: physicochemical
Protocol: DCS water vapour sorption isotherms were acquired on DVS instrument with microbalance and incubator (DVS-Intrinsic, Surface Measurement Systems, SMS). Powder samples were accurately weighed into disposable Al pans and placed on the sample position of the DVS instrument. A nitrogen overall follow rate of 200 mL/min (combined dry and humid stream) was used for humidification. […] For all RH steps, an equilibrium condition of dm/dt≤0.0005 wt %/min was used, with a minimum RH step time of 10 minutes and a maximum RH step time (timeout) of 360 minutes.

Initial dissolution rate compared with parent Compound 1 [1] | SMILES | other results
faster initial dissolution rate | COc1cc2ncc3c(c2cc1-c1cn(C)nc1C)n(-c1c(F)cncc1OC)c(=O)n3C.O=S(=O)(O)c1ccc2ccccc2c1 [Compound 1 napsylate] | 
faster initial dissolution rate | COc1cc2ncc3c(c2cc1-c1cn(C)nc1C)n(-c1c(F)cncc1OC)c(=O)n3C.O=C(O)/C=C/C(=O)O [Compound 1 fumarate] | Hygroscopic properties [2]: absence of hygroscopic properties
 | COc1cc2ncc3c(c2cc1-c1cn(C)nc1C)n(-c1c(F)cncc1OC)c(=O)n3C [Form A3] | Water adsorption (DVS), in words ([2]; up to a relative humidity of about 70%, 25° C.): very little water adsorption
 | COc1cc2ncc3c(c2cc1-c1cn(C)nc1C)n(-c1c(F)cncc1OC)c(=O)n3C [Form A2] | Water adsorbed (DVS) ([2]; up to a relative humidity of 100%, 25° C.): < 2%
faster initial dissolution rate | COc1cc2ncc3c(c2cc1-c1cn(C)nc1C)n(-c1c(F)cncc1OC)c(=O)n3C.O=S(=O)(O)CCS(=O)(=O)O [Compound 1 edisylate] | 
